Measured values reported in patent publication US12534452B2, “N-(1H-imidazol-2-yl)benzamide compound and pharmaceutical composition comprising the same as active ingredient” (KAINOS MEDICINE, INC., priority 2019, dated 2026).

Molecular target: IRAK4 (Homo sapiens (Human), UniProt Q9NWZ3)
Assay: In vitro IRAK4 phosphorylation activity assay
Format: biochemical
Conditions: [γ-33P]-ATP, myelin basic protein substrate, 40 minutes at room temperature; categories
Outline: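 Radiometric filter-binding assay, no compound–kinase preincubation; 8 mM MOPS pH 7.0, 0.2 mM EDTA, 10 mM Mg acetate, 0.33 mg/mL myelin basic protein substrate, [γ-33P]-ATP. Reaction 40 min at room temperature, stopped with phosphoric acid, scintillation counting; IC50 reported in categories.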

Chain of IRAK4 (Q9NWZ3 whole entry): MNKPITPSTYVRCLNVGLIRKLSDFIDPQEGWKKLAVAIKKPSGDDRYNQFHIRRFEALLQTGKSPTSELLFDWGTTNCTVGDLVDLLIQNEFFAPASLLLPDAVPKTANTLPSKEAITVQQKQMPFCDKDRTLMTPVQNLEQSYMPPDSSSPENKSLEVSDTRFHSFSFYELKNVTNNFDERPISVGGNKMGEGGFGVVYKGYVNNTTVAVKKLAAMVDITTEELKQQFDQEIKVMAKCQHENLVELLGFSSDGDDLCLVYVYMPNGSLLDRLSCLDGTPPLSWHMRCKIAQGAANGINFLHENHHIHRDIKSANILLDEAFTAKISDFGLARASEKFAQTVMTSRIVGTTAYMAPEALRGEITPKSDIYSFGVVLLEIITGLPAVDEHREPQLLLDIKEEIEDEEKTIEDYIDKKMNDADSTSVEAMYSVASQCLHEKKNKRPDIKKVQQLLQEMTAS

| IC50 [nM] | SMILES |
| --- | --- |
| > 100 | O=C(Nc1nc(CCN2CCCCC2)cn1-c1ccccc1)c1cccc(-c2cn[nH]c2)c1 [Example 104, N-(1-phenyl-4-(2-(piperidin-1-yl)ethyl)-1H-imidazol-2-yl)-3-(1H-pyrazol-4-yl)benzamide] |
| < 50 | CC(=O)N1CCN(C(=O)CCCc2cn(-c3ccccc3)c(NC(=O)c3cccc(-c4cnn(C)c4)c3)n2)CC1 [Example 205, N-(4-(4-(4-acetylpiperazin-1-yl)-4-oxobutyl)-1-phenyl-1H-imidazol-2-yl)-3-(1-methyl-1H-pyrazol-4-yl)benzamide] |
| > 100 | O=C(Nc1nc(CCCCNc2ccccc2)cn1-c1ccccc1)c1cccc(-c2cn[nH]c2)c1 [Example 112, N-(1-phenyl-4-(4-(phenylamino)butyl)-1H-imidazol-2-yl)-3-(1H-pyrazol-4-yl)benzamide] |
| < 50 | Cn1cc(-c2cccc(C(=O)Nc3nc(CCCC(=O)NC4CCOC4)cn3-c3ccccc3)c2)cn1 (stereo not drawn) [Example 179, 3-(1-methyl-1H-pyrazol-4-yl)-N-(4-(4-oxo-4-((tetrahydrofuran-3-yl)amino)butyl)-1-phenyl-1H-imidazol-2-yl)benzamide] |
| < 50 | O=C(CCCc1cn(-c2ccccc2)c(NC(=O)c2cccc(-c3cnn(C(F)F)c3)c2)n1)NC1CC1 [Example 235, N-(4-(4-(cyclopropylamino)-4-oxobutyl)-1-phenyl-1H-imidazol-2-yl)-3-(1-(difluoromethyl)-1H-pyrazol-4-yl)benzamide] |
| < 50 | Nc1ccc(-c2cccc(C(=O)Nc3nc(CCCCN4CCCC4=O)cn3-c3ccccc3)c2)cn1 [Example 277, 3-(6-aminopyridin-3-yl)-N-(4-(4-(2-oxopyrrolidin-1-yl)butyl)-1-phenyl-1H-imidazol-2-yl)benzamide] |
| < 50 | Cn1cc(-c2cccc(C(=O)Nc3nc(CCCC(=O)N4CC[C@@H](N)C4)cn3-c3ccccc3)c2)cn1 [Example 212, (R)—N-(4-(4-(3-aminopyrrolidin-1-yl)-4-oxobutyl)-1-phenyl-1H-imidazol-2-yl)-3-(1-methyl-1H-pyrazol-4-yl)benzamide] |
| < 50 | CN1CCCN(C(=O)CCCc2cn(-c3ccccc3)c(NC(=O)c3cccc(-c4cnn(C)c4)c3)n2)CC1 [Example 183, N-(4-(4-(4-methyl-1,4-diazepan-1-yl)-4-oxobutyl)-1-phenyl-1H-imidazol-2-yl)-3-(1-methyl-1H-pyrazol-4-yl)benzamide] |
| 50 to 100 | CN1CCN(CCCNC(=O)CCCc2cn(-c3ccccc3)c(NC(=O)c3cccc(-c4cnn(C)c4)c3)n2)CC1 [Example 186, 3-(1-methyl-1H-pyrazol-4-yl)-N-(4-(4-((3-(4-methylpiperazin-1-yl)propyl)amino)-4-oxobutyl)-1-phenyl-1H-imidazol-2-yl)benzamide] |
| < 50 | O=C(CCCc1cn(-c2ccccc2)c(NC(=O)c2cccc(-c3ccncc3)c2)n1)NC1CC1 [Example 267, N-(4-(4-(cyclopropylamino)-4-oxobutyl)-1-phenyl-1H-imidazol-2-yl)-3-(pyridin-4-yl)benzamide] |
| 50 to 100 | Cn1ncc2cc(-c3cccc(C(=O)Nc4nc(CCCCCCN5CCCCC5)cn4-c4ccccc4)c3)ccc21 [Example 263, 3-(1-methyl-1H-indazol-5-yl)-N-(1-phenyl-4-(6-(piperidin-1-yl)hexyl)-1H-imidazol-2-yl)benzamide] |
| 50 to 100 | CNC(=O)CCCc1cn(-c2ccc(F)cc2F)c(NC(=O)c2cccc(-c3cn[nH]c3)c2)n1 [Example 298, N-(1-(2,4-difluorophenyl)-4-(4-(methylamino)-4-oxobutyl)-1H-imidazol-2-yl)-3-(1H-pyrazol-4-yl)benzamide] |
| > 100 | O=C(Nc1nc(CCCCCC(=O)N2CCCCCC2)cn1-c1ccccc1)c1cccc(-c2ccc3scnc3c2)c1 [Example 289, N-(4-(6-(azepan-1-yl)-6-oxohexyl)-1-phenyl-1H-imidazol-2-yl)-3-(benzo[d]thiazol-5-yl)benzamide] |
| < 50 | O=C(CCCc1cn(-c2ccccc2)c(NC(=O)c2cccc(-c3cn[nH]c3)c2)n1)Nc1ccc(F)cc1 [Example 64, N-(4-(4-((4-fluorophenyl)amino)-4-oxobutyl)-1-phenyl-1H-imidazol-2-yl)-3-(1H-pyrazol-4-yl)benzamide] |
| < 50 | CNC(=O)CCCCc1cn(-c2ccccc2)c(NC(=O)c2cccc(-c3cn[nH]c3)c2)n1 [Example 80, N-(4-(5-(methylamino)-5-oxopentyl)-1-phenyl-1H-imidazol-2-yl)-3-(1H-pyrazol-4-yl)benzamide] |
| 50 to 100 | Cn1cc(-c2cccc(C(=O)Nc3nc(CCCC(=O)NN4CCCCC4)cn3-c3ccccc3)c2)cn1 [Example 152, 3-(1-methyl-1H-pyrazol-4-yl)-N-(4-(4-oxo-4-(piperidin-1-ylamino)butyl)-1-phenyl-1H-imidazol-2-yl)benzamide] |
| < 50 | Nc1ccc(-c2cccc(C(=O)Nc3nc(CCCCCCNC(=O)C4CC4)cn3-c3ccccc3)c2)cn1 [Example 278, 3-(6-aminopyridin-3-yl)-N-(4-(6-(cyclopropanecarboxamido)hexyl)-1-phenyl-1H-imidazol-2-yl)benzamide] |

| IC50 [nM] | SMILES |
| --- | --- |
| < 50 | O=C(Nc1nc(CCCCCCN2CCCCC2)cn1-c1ccccc1)c1cccc(-c2cccc3[nH]ncc23)c1 [Example 255, 3-(1H-indazol-4-yl)-N-(1-phenyl-4-(6-(piperidin-1-yl)hexyl)-1H-imidazol-2-yl)benzamide] |
| < 50 | CC1CCCCN1C(=O)CCCc1cn(-c2ccccc2)c(NC(=O)c2cccc(-c3cnn(C)c3)c2)n1 (stereo not drawn) [Example 166, 3-(1-methyl-1H-pyrazol-4-yl)-N-(4-(4-(2-methylpiperidin-1-yl)-4-oxobutyl)-1-phenyl-1H-imidazol-2-yl)benzamide] |
| < 50 | Cn1cc(-c2cccc(C(=O)Nc3nc(CCCCN4CCCC4=O)cn3-c3ccccc3)c2)cn1 [Example 224, 3-(1-methyl-1H-pyrazol-4-yl)-N-(4-(4-(2-oxopyrrolidin-1-yl)butyl)-1-phenyl-1H-imidazol-2-yl)benzamide] |
| < 50 | Cn1cc(-c2cccc(C(=O)Nc3nc(CCCCCCN4CCCC4=O)cn3-c3ccccc3)c2)cn1 [Example 225, 3-(1-methyl-1H-pyrazol-4-yl)-N-(4-(6-(2-oxopyrrolidin-1-yl)hexyl)-1-phenyl-1H-imidazol-2-yl)benzamide] |
| < 50 | CN(C)C1CCN(C(=O)CCCc2cn(-c3ccccc3)c(NC(=O)c3cccc(-c4cnn(C)c4)c3)n2)CC1 [Example 146, N-(4-(4-(4-(dimethylamino)piperidin-1-yl)-4-oxobutyl)-1-phenyl-1H-imidazol-2-yl)-3-(1-methyl-1H-pyrazol-4-yl)benzamide] |
| > 100 | CCOC(C)n1cc(-c2cccc(C(=O)Nc3nc(CCCC(=O)NC4CC4)cn3-c3ccccc3)c2)cn1 (stereo not drawn) [Example 72, N-(4-(4-(cyclopropylamino)-4-oxobutyl)-1-phenyl-1H-imidazol-2-yl)-3-(1-(1-ethoxyethyl)-1H-pyrazol-4-yl)benzamide] |
| < 50 | Cn1cc(-c2cccc(C(=O)Nc3nc(CCCC(=O)N4CCOCC4)cn3-c3ccccc3)c2)cn1 [Example 160, 3-(1-methyl-1H-pyrazol-4-yl)-N-(4-(4-morpholino-4-oxobutyl)-1-phenyl-H-imidazol-2-yl)benzamide] |
| < 50 | CN1CCN(C(=O)CCCc2cn(-c3ccccc3)c(NC(=O)c3cccc(-c4ccc(N)nc4)c3)n2)CC1 [Example 274, 3-(6-aminopyridin-3-yl)-N-(4-(4-(4-methylpiperazin-1-yl)-4-oxobutyl)-1-phenyl-1H-imidazol-2-yl)benzamide] |
| > 100 | O=C(CCc1cn(-c2ccccc2)c(NC(=O)c2cccc(-c3c[nH]nc3[N+](=O)[O-])c2)n1)Nc1ccccc1 [Example 1, 3-(3-nitro-1H-pyrazol-4-yl)-N-(4-(3-oxo-3-(phenylamino)propyl)-1-phenyl-1H-imidazol-2-yl)benzamide] |
| 50 to 100 | O=C(CCc1cn(-c2cccc(Br)c2)c(NC(=O)c2cccc(-c3cn[nH]c3)c2)n1)Nc1ccccc1 [Example 294, N-(1-(3-bromophenyl)-4-(3-oxo-3-(phenylamino)propyl)-1H-imidazol-2-yl)-3-(1H-pyrazol-4-yl)benzamide] |
| < 50 | O=C(CCCc1cn(-c2ccccc2)c(NC(=O)c2cccc(-c3ccc4ncsc4c3)c2)n1)NC1CC1 [Example 279, 3-(benzo[d]thiazol-6-yl)-N-(4-(4-(cyclopropylamino)-4-oxobutyl)-1-phenyl-1H-imidazol-2-yl)benzamide] |
| 50 to 100 | CN1CCN(NC(=O)CCCc2cn(-c3ccccc3)c(NC(=O)c3cccc(-c4cnn(C)c4)c3)n2)CC1 [Example 153, 3-(1-methyl-1H-pyrazol-4-yl)-N-(4-(4-((4-methylpiperazin-1-yl)amino)-4-oxobutyl)-1-phenyl-1H-imidazol-2-yl)benzamide] |
| < 50 | O=C(CCCCCc1cn(-c2ccccc2)c(NC(=O)c2cccc(-c3ccc4[nH]ncc4c3)c2)n1)NC1CC1 [Example 238, N-(4-(6-(cyclopropylamino)-6-oxohexyl)-1-phenyl-1H-imidazol-2-yl)-3-(1H-indazol-5-yl)benzamide] |
| < 50 | Cn1cc(-c2cccc(C(=O)Nc3nc(CCCC(=O)N4CCCCC4)cn3-c3ccccc3)c2)cn1 [Example 142, 3-(1-methyl-TH-pyrazol-4-yl)-N-(4-(4-oxo-4-(piperidin-1-yl)butyl)-1-phenyl-1H-imidazol-2-yl)benzamide] |
| 50 to 100 | Cn1cc(-c2cccc(C(=O)Nc3nc(CCC(=O)Nc4ccccc4)cn3-c3ccccc3)c2)cn1 [Example 193, 3-(1-methyl-1H-pyrazol-4-yl)-N-(4-(3-oxo-3-(phenylamino)propyl)-1-phenyl-1H-imidazol-2-yl)benzamide] |
| < 50 | O=C(Nc1nc(CCCCN2CCCCC2)cn1-c1ccccc1)c1cccc(-c2cn[nH]c2)c1 [Example 113, N-(1-phenyl-4-(4-(piperidin-1-yl)butyl)-1H-imidazol-2-yl)-3-(1H-pyrazol-4-yl)benzamide] |
